Source: patent US20170298090A1, “Modulators of ROR-gamma Receptors, Composition and Use Thereof” (KULING THERAPEUTICS, priority 2016, published 2017)
Entries after “also recorded” stand apart in the source; their conditions may differ. Where two headings read alike, the source gives them in different places. One block for each compound: values may come before it.

What was measured:
Th17 cells [1] = experiment: Th17 differentiation of mouse naive CD4+ T cells, IL-17/IL-17F intracellular staining; format: cell-based; conditions: for inhibition of TH17 differentiation (in words): 2-10 μM, in vitro culture; for IL-17 and IL-17F expression in Th17 cells (in words): FIG. 1
Experimental: T-cell Isolation and Differentiation—Mouse T cell differentiation was performed and analyzed by intracellular staining as described. […] The Journal of biological chemistry 286: 22707-22710 (2011); Wang, X., et al. Transcription of Il17 and Il17f is controlled by conserved noncoding sequence 2. Immunity 36: 23-31 (2012). Briefly, mouse naïve CD4^+ T cells (CD4^+CD25^−CD62L^hi-CD44^lo) were isolated from spleens and lymph nodes by FACS sorting. Th17 differentiation was performed with 15 ng ml^− IL-6 and 2.5 ng ml^− TGF-β in the presence of 1 μg ml^− anti-CD3 (plate bound) and 1 μg ml^− anti-CD28 (plate bound) for 4 days. When indicated, different concentrations of UA, KL001, other UA analogs or small molecules (dissolved in DMSO) were added at the beginning of Th17 differentiation. The mature Th17 cells were restimulated with 50 ng ml^− PMA (phorbol 12-myristate 13-acetate) and 500 ng ml^− inomycin in the presence of BD GolgiStop™ for 6 hrs, stained intracellularly for IL-17 and IL-17F, and then analyzed by flow cytometry.
UA and its analogs KL001 to KL005, 201702-1 to 201702-4, and 201509-1 to 201509-3 inhibit TH17 differentiation. Mouse naïve CD4+ T cells were cultured under Th17 polarizing condition in the presence of above chemicals (2-10 μM) or DMSO control (Ctrl) for 4 days and then restimulated for IL-17 and IL-17F staining (FIG. 1). […] The Journal of biological chemistry 286: 22707-22710 (2011), 2 μM UA inhibited ˜80% IL-17 expression and ˜50% IL-17F expression, both of which were reported to contribute TH17-mediated autoimmune diseases Yang, X. O., Chang, S. H., Park, H. et al. Regulation of inflammatory responses by IL-17F. The Journal of experimental medicine, 205: 1063-1075 (2008). […] (FIG. 1), whereas other UA analogs inhibited TH17 differentiation at a less degree (FIG. 1 and FIG. 6).

[2] = test system: experimental autoimmune encephalomyelitis (EAE); experiment: MOG-induced EAE, preventative disease model; format: in vivo, mice; conditions: for IL-17 expression of T cells infiltrated into the central nerve system: 100 mg/kg i.p. every other day; for effect on EAE disease (in words): 100 mg/kg i.p. every other day after first MOG immunization
Experimental: (§1) MOG-induced Experimental Autoimmune Encephalomyelitis (EAE)—EAE induction were performed by immunizing mice twice with MOG35-55 peptide (amino acids 35-55; MEVGWYRSPFSROVHLYRNGK) emulsified in CFA followed by pertussis toxin injection with slight modifications, and analyzed as previously described. […] The Journal of biological chemistry 286: 22707-22710 (2011); Wang, X., et al. Transcription of Il17 and Il17f is controlled by conserved noncoding sequence 2. Immunity 36: 23-31 (2012). Briefly, the disease scores were assigned on a scale of 0-5 as follows: 0, none; 1, limp tail or waddling gait with tail tonicity; 2, wobbly gait; 3, hindlimb paralysis; 4, hindlimb and forelimb paralysis; 5, death.
The Journal of biological chemistry 286: 22707-22710 (2011).

[3] = test system: experimental autoimmune encephalomyelitis (EAE); experiment: MOG-induced EAE, therapeutic disease model; format: in vivo, mice; conditions: ~250 mg/kg gavage twice daily from Day 9
Experimental: as §1
To test the therapeutic potential of KL001, EAE was first induced by MOG immunization and PTX injection as described.

Th17 cells [4] = conditions: previous studies (Xu et al. 2011); read-out: IC50 in inhibiting Th17 differentiation; cited from earlier work
STAT3 = STAT3 (Homo sapiens, UniProt P40763); conditions: previous studies; cited from earlier work
Sequence of STAT3 (P40763 whole entry, species assumed): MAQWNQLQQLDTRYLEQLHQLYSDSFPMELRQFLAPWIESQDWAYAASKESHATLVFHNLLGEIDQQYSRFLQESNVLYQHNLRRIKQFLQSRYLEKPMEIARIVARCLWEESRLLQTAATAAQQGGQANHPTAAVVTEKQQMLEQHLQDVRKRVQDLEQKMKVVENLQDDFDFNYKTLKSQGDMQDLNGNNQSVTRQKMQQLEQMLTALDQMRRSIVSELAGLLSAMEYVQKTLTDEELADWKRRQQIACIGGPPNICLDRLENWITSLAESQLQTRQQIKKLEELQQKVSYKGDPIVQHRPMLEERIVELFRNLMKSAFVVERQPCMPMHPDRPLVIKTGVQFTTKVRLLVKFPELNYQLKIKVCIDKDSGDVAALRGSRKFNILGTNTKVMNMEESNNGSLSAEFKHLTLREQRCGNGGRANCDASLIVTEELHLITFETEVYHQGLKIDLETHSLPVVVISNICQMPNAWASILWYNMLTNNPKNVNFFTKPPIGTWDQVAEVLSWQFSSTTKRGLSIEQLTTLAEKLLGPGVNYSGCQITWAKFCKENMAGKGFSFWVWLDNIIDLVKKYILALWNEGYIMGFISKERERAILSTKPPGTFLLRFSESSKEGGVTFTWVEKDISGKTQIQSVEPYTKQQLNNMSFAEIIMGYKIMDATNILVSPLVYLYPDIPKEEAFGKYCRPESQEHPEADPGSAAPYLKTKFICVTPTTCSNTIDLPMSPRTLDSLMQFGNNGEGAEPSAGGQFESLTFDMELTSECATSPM

rodents = conditions: cited from earlier work
[5] = test system: imiquimod (IMQ)-induced psoriasis; experiment: IMQ-induced psoriasis, preventative disease model; format: in vivo, C57BL/6 mice; conditions: ~250 mg/kg gavage twice daily
Experimental: IMQ-induced psoriasis model—The mouse psoriasis model was induced according to previous described with minor modifications. van der Fits L, et al. (2009) Imiquimod-induced psoriasis-like skin inflammation in mice is mediated via the IL-23/IL-17 axis. J Immunol 182(9):5836-5845. Briefly, 7-9 weeks old female C57BL/6 mice were used to induce psoriasis. On day 0, the hair was removed from the dorsal skin of the mice after anaesthetizing with pentobarbital (˜0.2 ml/20 g body weight by i.p.). On day 1, psoriasis was induced […] by applying 62.5 mg 5% imiquimod cream to the dorsal skin after anaesthesia on a daily base. In the preventative disease model, KL001 (dissolved in 0.5% methylcellulose (MC)) or 0.5% MC (control group) was orally administrated into C57BL/6 mice by gavage at a dosage of ˜250 mg/kg body weight twice daily starting 2 days before induction of psoriasis (Day −2). The mice were then sacrificed on Day 5, and the skin tissues were then removed for H&E staining and mRNA expression analysis. […] The expression of Il17, Il17f and Rorc (encoding RORγt) were then quantified by realtime PCR and normalized to Actb gene by using the following primers: Actb, F: […]/R (SEQ ID NO.1): […] […]

[6] = 2 μM, Th17 polarizing condition, 4 days

SMILES: C[C@H]1[C@H](C)CC[C@]2(C(=O)O)CC[C@]3(C)C(=CC[C@@H]4[C@@]5(C)CC[C@H](O)C(C)(C)[C@@H]5CC[C@]43C)[C@H]12 [UA, ursolic acid, reference compound]
inhibition of IL-17F expression (Th17 cells [1]; [6]): ~50%
inhibition of IL-17 expression (Th17 cells [1]; [6]): ~80%
inhibition of TH17 differentiation (in words) (Th17 cells [1]; 4 days): inhibit
IL-17 and IL-17F expression in Th17 cells (in words) (Th17 cells [1]): inhibited
IL-17 expression of T cells infiltrated into the central nerve system [2]: significantly reduced
effect on EAE disease (in words) [2]: ameliorated
effect on EAE disease (in words) [3]: did not affect; also recorded: but not UA, ameliorated
IC50 (Th17 cells [4]): 680 nM
concentration at which inhibitory activity on STAT3 was observed (STAT3): higher than 25 μM
acute toxicity LD50 (rodents; intraperitoneal injection (Lee et al. 2010)): > 637 mg/kg
acute toxicity LD50 (rodents; oral administration (Lee et al. 2010)): 8330 mg/kg

IC50 (Th17 cells [1]; Mus musculus, CD4+ T, readout of IL-17 staining, titration, read-out: IC50 in inhibiting Th17 differentiation): ~490 nM
SMILES: Cc1oc(=O)oc1COC(=O)[C@]12CC[C@@H](C)[C@H](C)[C@H]1C1=CC[C@@H]3[C@@]4(C)CC[C@H](O)C(C)(C)[C@@H]4CC[C@@]3(C)[C@]1(C)CC2 [KL001, (5-methyl-2-oxo-1,3-dioxol-4-yl)methyl (1S,2R,4aS,6aS,6bR,8aR,10S,12aR,12bR,14bS)-10-hydroxy-1,2,6a,6b,9,9,12a-heptamethyl-1,3,4,5,6,6a,6b,7,8,8a,9,10,11,12,12a,12b,13,14b-octadecahydropicene-4a(2H)-carboxylate]
inhibition of TH17 differentiation (in words) (Th17 cells [1]; 4 days): comparable level to UA; also recorded: comparable efficacy with UA
IL-17 and IL-17F expression in Th17 cells (in words) (Th17 cells [1]): inhibited
IL-17 expression of T cells infiltrated into the central nerve system [2]: significantly reduced
effect on EAE disease (in words) [2]: greater degree than UA; also recorded: ameliorated
effect on EAE disease (in words) [3]: significantly reduced the disease severity; also recorded: ameliorated
reduction of average disease scores vs control group [3]: 50%
psoriatic symptoms, redness and roughness of the skin (in words) [5]: visually and greatly reduced; also recorded: ameliorated psoriatic symptoms
expression of IL-17 in skin samples ([5]; mRNA): notably reduced
